Laboratory results from a melting point compilation (Tetko et al.; mined from patent text by program, amines drawn as free bases though some values may be those of a salt).

In the case of `OC(CCc1nc(CCl)no1)c1ccc(-c2ccccc2)cc1` (stereo not drawn), the melting point is reported as 48 to 49 °C.
Molecule `COc1cc2c(cc1OC)CN(CCc1ccc(N)cc1)C2` has a melting point of 150 °C.
`COc1cncc(OC)c1CCCOc1cccnc1Cc1cccc(Br)c1` showed a melting point of 153 to 165 °C.
For `CC(C)(C)c1cc(-c2c(NC(=O)Nc3ccc(F)cc3F)c(=O)oc3ccc(Cl)cc23)cc(C(C)(C)C)c1O`, the melting point was 244 to 246 °C.
In the case of `COc1ccc2c(N=O)c(O)ccc2c1`, the melting point is reported as 147 to 148 °C.
In the case of `COc1cc(Nc2c(C#N)cnc3cc(C)sc23)c(Cl)cc1Cl`, the melting point is reported as 213 to 214 °C.
In the case of `CC(C)[C@H](NC(=O)c1ccc2ccccc2n1)C(=O)NC(Cc1ccccc1)C(O)CNCC(O)C(Cc1ccccc1)NC(=O)OC(C)(C)C` (stereo partly drawn), the melting point is reported as 192 to 194 °C.
For `COc1ccc(-c2sc3ccccc3c2C(=O)c2ccc(OCCN3CCCCC3)cc2)cc1`, the melting point was 41 to 44 °C.
In the case of `O=C(CN1CCN(c2ccccc2)CC1)c1ccccc1`, the melting point is reported as 104 to 106 °C.
Work on `CN(C)CCNc1ccc(NCCCCC(=O)NOCc2ccccc2)c2c1C(=O)c1ccccc1C2=O` yielded a melting point of 146 to 148 °C.
`COC(=O)c1nc(-c2ccc(Cl)c(F)c2)c(F)c(N)c1SC` gave a melting point of 125 to 126 °C.
`COc1cc2cn(CC3CCCCO3)nc2cc1OC` (stereo not drawn) showed a melting point of 90 to 96 °C.
For `CCCc1cc(O)c(C#N)s1`, the melting point was 78 °C.
In the case of `CC(=O)c1c(C)[nH]c(CC(C)(C)C)c1C`, the melting point is reported as 156 to 163 °C.
For `O=[PH]1Oc2ccccc2-c2ccccc21` (stereo not drawn), the melting point was 116 °C.
For `Nc1ccc(C(c2cccc(N)c2)(C(F)(F)F)C(F)(F)F)cc1`, the melting point was 142 to 143 °C.
`CN1C(C(=O)Nc2ccc(O)c(=O)cc2)=C(O)c2ccccc2S1(=O)=O` showed a melting point of 258 to 265 °C.
With `CCOCCCn1ccc(=O)c(OC(=O)NCC(=O)OCC)c1C` the melting point was 84 to 85 °C.
Work on `COC(=O)N1CCCC2CN(c3ccc(N4CC(CNC(C)=O)OC4=O)cc3F)CC21` (stereo not drawn) yielded a melting point of 83 to 85 °C.
With `CC(C)(C)C(F)(F)c1ccc(C[C@@H](NC(=O)c2cccc3c2C=CCCC3)[C@@H](O)c2cccc(Cl)c2)cc1` (racemic) the melting point was 119 to 120 °C.
In the case of `O=c1cc(COC2CCCCO2)occ1O` (stereo not drawn), the melting point is reported as 94 °C.
With `COC(=O)CNC(=O)[C@H](CSC(c1ccccc1)(c1ccccc1)c1ccccc1)NC(=O)OC(C)(C)C` the melting point was 167 to 169 °C.
For `CN(C)CC1CCCCN1CC(=O)N1c2ccccc2NC(=O)c2cscc21` (stereo not drawn), the melting point was 208 to 209 °C.
Work on `COc1ccccc1C(=O)NS(=O)(=O)c1ccc(N)cc1` yielded a melting point of 180 to 182 °C.
Molecule `COC(=O)c1cc(-c2c(OC)cccc2OC)n(-c2ccc(NS(=O)(=O)c3ccc(C)cc3)cc2C2CCCC2)n1` has a melting point of 200 to 230 °C.
`CCOC(=O)Cc1ccc(C(=O)c2ccc(C#N)cc2)n1C` gave a melting point of 117 to 120 °C.
In the case of `C=CCc1c(Cl)cc2c(c1O)OC(COS(=O)(=O)c1ccc(C)cc1)C2` (stereo not drawn), the melting point is reported as 128 to 131 °C.
`COC(=O)[C@@H](Cc1ccc(-c2ncnc3c2ncn3[C@@H]2CCCCO2)cc1)NC(=O)OC(C)(C)C` gave a melting point of 144 to 147 °C.
In the case of `CC(C)OC(=O)Cc1nc(-c2ccccc2)oc1-c1ccsc1`, the melting point is reported as 62 to 63 °C.
In the case of `Cc1nc2ncc(C(=O)NCc3ccc(Cl)cc3)c(O)c2cc1I`, the melting point is reported as 276 to 277 °C.
Molecule `C=Cc1ccc(Nc2nc(Cl)nc(Cl)n2)cc1` has a melting point of 152 to 154 °C.
`CCOC(=O)C=Cc1c(C#N)cnn1-c1ccc(Cl)c(Cl)c1Cl` gave a melting point of 131 to 134 °C.
With `CC(C)c1nc(C(C)C)c(CNC2CC2)c(-c2ccc(F)cc2)c1CO` the melting point was 81 to 83 °C.
Work on `CCC(C)n1cc(Cl)nc(N2CCc3cc(OC)cc(Br)c32)c1=O` (stereo not drawn) yielded a melting point of 155 to 157 °C.
Work on `CCOC(=O)COc1coccc1=O` yielded a melting point of 58 to 60 °C.
With `CC1(C)C(=O)Nc2cc3[nH]c(CCC(=O)O)nc3cc21` the melting point was 130 to 135 °C.
`COC(=O)CCC(C)C1CCC2C3CC=C4CC(OC(C)=O)CC(OC(C)=O)C4(C)C3CCC12C` (stereo not drawn) gave a melting point of 108 to 113 °C.
In the case of `CC1(C)CCC(C)(C)c2cc(OCc3ccc(C(=O)O)cc3)ccc21`, the melting point is reported as > 330 °C.
`CCCn1c(=O)c2[nH]c(C(CC)Cc3ccccc3)nc2n(CCC)c1=O` (stereo not drawn) gave a melting point of 180 °C.
In the case of `O=C1OC(Cc2ccccc2)CN1c1cccc(F)c1` (stereo not drawn), the melting point is reported as 96 to 97.5 °C.
`O=C(O)/C=C1\CCc2c(Cl)cc(F)cc21` showed a melting point of 229 to 230 °C.
`CCN1C=C2C=C(S)N=CN2N1` showed a melting point of 251 to 254 °C.
Molecule `CCC(C)C(NC(=O)OC)C(=O)NC(Cc1ccccc1)C(O)CN(Cc1ccc(-c2cncs2)cc1)NC(=O)C(NC(=O)OC)C(C)C` (stereo not drawn) has a melting point of 202 to 204 °C.
In the case of `CCC(C)(O)c1cc(NC(=O)N2CCN(c3cc(OC)cc(OC)c3)CC2)c(OC)nc1C` (stereo not drawn), the melting point is reported as 127 to 129 °C.
`CC(C)(C)OC(=O)N1CCC(=Cc2ccc(F)cc2)CC1` showed a melting point of 69 to 70 °C.
With `Cn1c(C(F)F)nn(-c2cc(OCC(N)=O)c(Cl)cc2Cl)c1=O` the melting point was 190 to 194 °C.
For `O=[N+]([O-])c1cc2c(Nc3ccc(F)c(Cl)c3)ncnc2cc1O[C@@H]1CCOC1`, the melting point was 244 °C.
`CCc1nn(C2CCCC2)c2cc(C(=O)NCc3ccncc3)ccc12` gave a melting point of 147 to 149 °C.
In the case of `Oc1ccc2cc(-c3cnc(Cc4ccc5ccccc5c4)o3)ccc2c1`, the melting point is reported as 188 to 191 °C.
Molecule `C#CCOc1cc(-c2nc3n(c2Cl)CCCC3)c(F)cc1Cl` has a melting point of 142 to 145 °C.
Molecule `COc1ccc(C(=O)n2c3c(c4cc(F)ccc42)CC(C(=O)O)CC3)cc1` (stereo not drawn) has a melting point of 197 to 198 °C.
`Cc1nc(-c2ccc(C(F)(F)F)cc2)oc1COc1ccc(Cc2nn[nH]n2)cc1` gave a melting point of 208 °C.
In the case of `COc1nc(NC(=O)NS(=O)(=O)c2ccsc2C(=O)C2CC2)nc(OC)n1`, the melting point is reported as 146 to 148 °C.
`CNc1cc(C(=O)CS(C)(=O)=O)cc(NC)c1Cl` gave a melting point of 165 to 167 °C.
`Cn1cnc(COc2nn3c(-c4ccccc4)nnc3cc2-c2ccoc2)n1` showed a melting point of 241 °C.
Molecule `CC(=NOCc1ccccc1-n1c(Cl)nn(C)c1=O)c1cccc(C(F)(F)F)c1` has a melting point of 95 to 97 °C.
Molecule `CCC(=O)c1cc(-c2cccc(O)c2)cs1` has a melting point of 112 °C.
Work on `CCOC(=O)OC1=C(c2cc(C)ccc2C)C(=O)N(OCOC)C12CCN(OC)CC2` yielded a melting point of 109 to 111 °C.
Work on `NC(=O)CNc1ncccc1N` yielded a melting point of 153 to 155 °C.
In the case of `O=C1N(c2ccc(Cl)cc2)C(Cl)(Cl)C2CCCCC12Cl` (stereo not drawn), the melting point is reported as 120 to 124 °C.
With `CCOC(=O)Nc1ccc(C(=O)Nc2ccc3ccc(OC)nc3n2)cc1` the melting point was 200 °C.
Molecule `O=C(CC1CC1)NC[C@H]1CN(c2ccc3c(c2)CCCc2cnoc2-3)C(=O)O1` has a melting point of 187 to 191 °C.
Molecule `COc1ccc(C2=N[C@H](c3ccccc3)[C@@H](OC(=O)Nc3ccc(Cl)c(Cl)c3)CO2)cc1` (racemic) has a melting point of 130 °C.
Work on `COc1cc(NC(C)=O)c(Cl)c(C(F)(F)F)c1Cl` yielded a melting point of 143 to 144 °C.
`Cc1cc(-c2cccc(-c3ccc(C4(O)C5CCC4CN(Cc4ccccc4)C5)cc3)n2)c(C)[nH]1` (stereo not drawn) showed a melting point of 58 to 68 °C.
For `NC(=O)c1[nH]nnc1O`, the melting point was 191 to 192 °C.
In the case of `Cc1cccc(NC(=O)c2ccccc2CN2C(=O)C3(COc4cc5c(cc43)CCO5)c3ccccc32)c1` (stereo not drawn), the melting point is reported as 229 to 231 °C.
`COc1cc(-c2ccc(Cl)cc2)cc2oc(=O)c(C)c(C)c12` gave a melting point of 148 °C.
`COC(=O)c1ccc2c(c1)SCCC2NC(=O)OCc1ccccc1` (stereo not drawn) showed a melting point of 128 to 130 °C.
For `O=c1c2c(Cc3ccccc3OC(F)(F)F)n[nH]c2c2cccnc2n1-c1cccc(C(F)(F)F)c1`, the melting point was 247 to 252 °C.
Work on `CC(C)(C)OC(=O)[C@@H]1C[C@H](c2ccccc2)CN1` yielded a melting point of 62 °C.
`COc1ccc(NC(=O)CN2CCN(c3cccc(C(F)(F)F)c3)CC2)c([N+](=O)[O-])c1` showed a melting point of 98 to 100 °C.
With `CNC(=NCCCSCn1cncc1C)NC#N` the melting point was 156 to 158 °C.
`C#Cc1cc(F)c(-n2c(=O)c(C)c(C(F)(F)F)n(C)c2=O)cc1NS(C)(=O)=O` showed a melting point of 207 to 208 °C.
`CCCCOC(=O)Nc1ccc2cnn(Cc3ccc(C(=O)NS(=O)(=O)c4ccccc4)cc3OC)c2c1` gave a melting point of 153 to 154 °C.
`Cc1cc(-c2nc3ccccc3c(=O)n2-c2ccc(C(F)(F)F)cc2)cc(C)c1OCCO` showed a melting point of 160 to 161 °C.
With `CN[C@@H](CC(C)C)C(=O)O` the melting point was 101 to 103 °C.
Molecule `CCC(O)(CC)[C@H](C[C@H](O)[C@H](CC1CCCCC1)NC(=O)[C@H](Cc1cscn1)NC(=O)OC(C)(C)C)C(=O)NC` has a melting point of 165 to 168 °C.
`COC(=O)C1CSC=CCCCC(=O)N1` (stereo not drawn) gave a melting point of 160 to 161 °C.
For `O=C1NC[C@H]2CCC[C@H]2O1` (relative stereo), the melting point was 56 to 58 °C.
In the case of `O=C(Nc1ccccc1)N1C(=O)[C@H](O)[C@@H]1c1ccccc1`, the melting point is reported as 197 to 200 °C.
With `CC1(C)CCC(C)(C)c2cc(-c3cc(C=CC(=O)O)ccc3O)c(OCc3ccc(F)cc3)cc21` the melting point was 123 to 125 °C.
Molecule `CC1(C)N=C(n2ccccc2=O)c2cc(C#N)ccc2O1` has a melting point of 115 to 116 °C.
For `Cc1cc(-c2cc(COS(C)(=O)=O)c(=O)n(CC=Cc3ccc(Cl)cc3)n2)ccc1F`, the melting point was 118 to 120 °C.
`O=C(O)C1C(=O)Nc2ccccc2SC1c1ccc2c(c1)OCO2` (mixture of isomers) showed a melting point of 110 °C.
For `O=C(c1ccccc1)N1C=CC(c2c(-c3ccc(F)cc3)nc3n2CCS3)C=C1`, the melting point was 188 to 189 °C.
`COC(=O)c1c(F)c(F)c(N=[N+]=[N-])c(F)c1F` showed a melting point of 53.6 to 54.3 °C.
In the case of `CCN(CC)CCCCC1CCN(CC(=O)N2c3ccccc3NC(=O)c3c2ccn3C)CC1`, the melting point is reported as 198 °C.
Work on `CNC(=O)NC(=O)N(C)c1ccccc1` yielded a melting point of 123 to 125 °C.
`CSC1=NCC2CN=C(c3ccccc3F)c3cc(Cl)ccc3N12` (stereo not drawn) showed a melting point of 163 to 165 °C.
`CCC1(C)CC(=O)C(C(=O)Nc2ccc(Cl)c(C(F)(F)F)c2)C(=O)C1` (stereo not drawn) gave a melting point of 87 to 88 °C.
`CCCc1cc(F)c2oc(Cc3ccc(OC)cc3)c(C)c2c1OC(C)=O` gave a melting point of 85 to 88 °C.
With `Cc1ccc(N2C(=O)C(O)=C(C(=O)c3ccc(C(C)C)cc3)C2c2ccc(OC(C)C)cc2)nn1` (stereo not drawn) the melting point was 280 to 281 °C.
`CC(O)(Cn1ccnc1)c1ccc2c(c1)Cc1ccccc1-2` (stereo not drawn) gave a melting point of 183 to 184 °C.
`CC(=O)NC(C)Cc1cc2c(cc1CCl)OCO2` (stereo not drawn) showed a melting point of 132 to 133 °C.
For `O=C(Nc1ccc(-n2nc(C(F)(F)F)cc2C(F)(F)F)cc1)c1cc(F)c(F)c(F)c1`, the melting point was 158 to 159 °C.
Molecule `COC(=O)c1ccc(CN2CCN(C(=O)c3ccc(Cl)cc3)CC2)cc1` has a melting point of 134 to 135 °C.
In the case of `C=C(CN(C)C)C(O)c1ncc2c(c1O)COC2c1cccc(Cl)c1Cl` (stereo not drawn), the melting point is reported as 180 to 184 °C.
